Data published in patent publication EP4813993A1, “COMPOUND, PREPARATION METHOD THEREFOR, AND USE THEREOF” (Sichuan Kelun Pharmaceutical Research Institute Co., Ltd., priority 2023, dated 2025).

Tests used:
[1] = Pharmacokinetic study in SD rats; format: in vivo; conditions: for AUC(0-inf) / half-life / Cmax / Tmax / bioavailability: rat
Method: Experimental Example 2: Pharmacokinetic study of compounds in SD rats
Experimental animals: SD rats, male, 6-8 weeks old.
(§1) Compound preparation: 5% (final preparation volume) of DMSO was added to dissolve the test compound, and then 10% (final preparation volume) of Cremophor EL and 85% Saline were sequentially added.
Experimental design: The test compounds were administered to SD rats as a single dose via intravenous and oral administration, respectively (injection: 2 mg/kg; oral administration: 10 mg/kg; n = 3). The injection group was given free access to food and water. The oral group was fasted overnight (> 12 h) with free access to water, and was fed 4 h after administration. Blood samples were collected from the jugular vein of SD rats at the following time points: 5 min, 15 min, 0.5 h, 1 h, 2 h, 4 h, 8 h, and 24 h after injection administration; 15 min, 0.5 h, 1 h, 2 h, 4 h, 6 h, 8 h, and 24 h after oral administration. The collected blood samples were anticoagulated, placed in an ice bath, and then centrifuged at 6000 g for 5 min to separate plasma. The plasma samples were stored at -70 °C for analysis.
Sample monitoring: The concentrations of the designated compound drugs in plasma were determined by the LC-MS/MS method; the main pharmacokinetic parameters were calculated using the Winnolin 8.3 non-compartmental model.

[2] = biological target: T1, Nav1.8 channels (Homo sapiens, UniProt Q9Y5Y9); experiment: Manual patch-clamp, current of stably overexpressed Nav1.8 channels (resting state voltage program); format: cell-based; conditions: for inhibition at 0.01 µM: concentration of 10 nM; for inhibition at 0.01 µM / inhibition at 0.001 µM: read-out: Inhibition rate %; for inhibition at 0.001 µM: concentration of 1 nM
T1 construct: expressed in transfected cells
Outline: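 Whole-cell manual patch clamp on cells stably overexpressing Nav1.8, held at -120 mV and stepped to 0 mV for 50 ms every 20 s (resting-state protocol). Compounds were perfused in ascending concentrations, each for 5 min or until stable; block of peak current was calculated at steady state.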

[3] = Pharmacokinetic study in ICR mice; format: in vivo; conditions: male, mouse, plasma
Method: Experimental Example 3: Pharmacokinetic study of compounds in ICR mice
(§2) Experimental animals: ICR mice, male, 6-8 weeks old.
as §1
The injection group was given free access to food and water. The oral group was fasted overnight (> 12 h) with free access to water, and was fed 4 h after administration. Blood samples were collected from the jugular vein of ICR mice at the following time points: 5 min, 15 min, 0.5 h, 1 h, 2 h, 4 h, 8 h, and 24 h after injection administration; 15 min, 0.5 h, 1 h, 2 h, 4 h, 6 h, 8 h, and 24 h after oral administration. The collected blood samples were anticoagulated, placed in an ice bath, and then centrifuged for 5 min to separate plasma. The plasma was stored at -70 °C for analysis.
Sample test: The concentrations of the designated compound drugs in plasma were determined by the LC-MS/MS method; the main pharmacokinetic parameters were calculated using the Winnolin 8.3 non-compartmental model. Pharmacokinetic test results of some compounds of the present disclosure in ICR mice

[4] = Tissue distribution study (dorsal root ganglia) in ICR mice; format: in vivo; conditions: male, mouse, oral administration 20 mg/kg
Method: Experimental Example 4: Tissue distribution study of compounds in ICR mice
as §2, §1
Experimental design: The test compounds were administered to ICR mice as a single dose via oral administration (20 mg/kg; n = 3, 3 time points). Blood samples were collected at 0.25 h, 2 h, and 12 h after oral administration, followed by sacrifice of the animals. Dorsal root ganglia (DRG) were collected, rinsed with ice-cold normal saline to remove residual blood, blotted dry with absorbent paper, and stored at -70 °C for analysis.
Sample test: The concentrations of the compound drugs in dorsal root ganglia were determined by the LC-MS/MS method.

[5] = tested on: formalin pain model; experiment: Rat formalin pain model; format: in vivo, SD rats
Method: Experimental Example 10: Pharmacodynamic effect study of compounds in rat formalin pain model
Experimental animals: SD rats, male, 180-200 g.
Compound preparation: 5% (final preparation volume) of DMSO was added to dissolve the test compound, and then 10% (final preparation volume) of Cremophor EL and 85% Saline were sequentially added; an appropriate amount of Etoricoxib was weighed, 5% (final preparation volume) of DMSO was added to dissolve the test compound, and then 5% (final preparation volume) of HS-15 and 90% Saline were sequentially added; the tramadol injection was diluted with normal saline to the desired concentration.
Each group consisted of 10 animals, and 50 µL of a 5% formalin solution was injected using a microsyringe into the right plantar region.
2. Administration and test
Based on different pharmacokinetic properties of the drugs, the administration was performed at 0 min, 60 min, and 120 min before modeling. After injection of the formalin, the number of pain responses in the rats was observed. […] Spontaneous pain responses were observed once every 5 min, and the number of pain responses in the rats within 1 min was counted, with a total observation duration of 60 min. Inhibition rate = (number of pain responses in control group - number of pain responses in administration group)/number of pain responses in control group × 100%.
Table 12. Administration information of compounds of the present disclosure in rat formalin model

[6] = in vivo, Oral administration, 10 mg/kg
[7] = male, plasma, Oral administration, 10 mg/kg
[8] = male, plasma, intravenous, Injection, 2 mg/kg

T1 sequence (Q9Y5Y9 whole entry): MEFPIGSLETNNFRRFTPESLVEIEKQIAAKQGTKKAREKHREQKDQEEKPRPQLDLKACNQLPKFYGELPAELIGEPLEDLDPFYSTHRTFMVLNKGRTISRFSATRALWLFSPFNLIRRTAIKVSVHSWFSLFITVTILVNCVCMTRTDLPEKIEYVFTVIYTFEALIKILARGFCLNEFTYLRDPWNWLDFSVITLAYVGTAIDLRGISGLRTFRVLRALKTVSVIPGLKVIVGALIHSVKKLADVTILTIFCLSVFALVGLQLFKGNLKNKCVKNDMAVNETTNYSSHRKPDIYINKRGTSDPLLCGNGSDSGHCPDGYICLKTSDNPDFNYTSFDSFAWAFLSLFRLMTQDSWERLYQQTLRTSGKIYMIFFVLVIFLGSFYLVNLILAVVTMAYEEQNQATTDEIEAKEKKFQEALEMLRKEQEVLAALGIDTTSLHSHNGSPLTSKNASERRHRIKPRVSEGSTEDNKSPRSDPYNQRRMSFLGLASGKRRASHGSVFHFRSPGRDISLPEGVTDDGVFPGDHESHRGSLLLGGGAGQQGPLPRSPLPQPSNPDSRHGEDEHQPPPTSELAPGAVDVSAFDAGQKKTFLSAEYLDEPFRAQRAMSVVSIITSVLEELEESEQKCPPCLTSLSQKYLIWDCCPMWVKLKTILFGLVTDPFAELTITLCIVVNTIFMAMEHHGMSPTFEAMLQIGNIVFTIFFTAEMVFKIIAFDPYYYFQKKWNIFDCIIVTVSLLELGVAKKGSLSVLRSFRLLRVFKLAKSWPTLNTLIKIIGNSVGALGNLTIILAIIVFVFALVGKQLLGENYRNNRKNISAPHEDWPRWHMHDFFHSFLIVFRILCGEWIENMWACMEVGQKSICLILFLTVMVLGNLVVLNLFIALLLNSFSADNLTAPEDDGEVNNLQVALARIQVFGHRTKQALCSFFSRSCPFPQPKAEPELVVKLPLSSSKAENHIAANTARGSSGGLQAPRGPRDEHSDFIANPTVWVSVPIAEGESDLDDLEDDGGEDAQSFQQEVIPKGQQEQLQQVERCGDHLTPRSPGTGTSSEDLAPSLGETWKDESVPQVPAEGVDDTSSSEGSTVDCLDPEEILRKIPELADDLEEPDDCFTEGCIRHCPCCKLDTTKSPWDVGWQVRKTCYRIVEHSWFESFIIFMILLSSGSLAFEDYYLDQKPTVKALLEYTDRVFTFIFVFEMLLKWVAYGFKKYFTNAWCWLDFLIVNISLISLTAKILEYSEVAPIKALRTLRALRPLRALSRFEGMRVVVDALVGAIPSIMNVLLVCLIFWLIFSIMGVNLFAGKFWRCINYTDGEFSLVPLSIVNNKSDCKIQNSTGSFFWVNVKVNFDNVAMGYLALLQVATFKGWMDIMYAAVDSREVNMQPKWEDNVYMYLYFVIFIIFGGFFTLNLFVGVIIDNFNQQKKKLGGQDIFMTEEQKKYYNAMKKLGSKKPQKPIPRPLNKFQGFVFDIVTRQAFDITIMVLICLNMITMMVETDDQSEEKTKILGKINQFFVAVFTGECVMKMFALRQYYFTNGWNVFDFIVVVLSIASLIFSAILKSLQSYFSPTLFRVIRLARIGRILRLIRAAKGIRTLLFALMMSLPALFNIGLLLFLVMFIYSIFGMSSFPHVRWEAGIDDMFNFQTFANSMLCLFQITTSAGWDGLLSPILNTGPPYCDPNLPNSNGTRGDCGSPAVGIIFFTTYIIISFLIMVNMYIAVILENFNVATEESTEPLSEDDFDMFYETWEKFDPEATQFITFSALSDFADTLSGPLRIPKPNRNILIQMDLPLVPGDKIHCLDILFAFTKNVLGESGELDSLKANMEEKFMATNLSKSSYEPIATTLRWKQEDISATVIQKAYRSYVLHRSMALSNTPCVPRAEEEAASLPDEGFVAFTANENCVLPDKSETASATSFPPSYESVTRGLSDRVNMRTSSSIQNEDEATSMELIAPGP

COc1c(C2C(C(=O)Nc3ccnc(C(N)=O)c3)OC(C)(C(F)(F)F)C2C)ccc(F)c1F (racemic) [VX-548(rac)]
AUC(0-inf) ([1]; in vivo, Injection, 2 mg/kg): 2650 ng·h/mL
half-life ([1]; in vivo, Injection, 2 mg/kg): 2.64 h
AUC(0-inf) [1, 6]: 4970 ng·h/mL
Cmax [1, 6]: 577 ng/mL
Tmax [1, 6]: 2 h
bioavailability [1, 6]: 37.6%
half-life [1, 6]: 3.26 h

COc1c(C2CC(C)(C(F)(F)F)SC2C(=O)Nc2ccnc(C(N)=O)c2)ccc(F)c1F (centres unmarked) [Compound 139, 4-(3-(3,4-difluoro-2-methoxyphenyl)-5-methyl-5-(trifluoromethyl)tetrahydrothiophene-2-carboxamido)picolinamide]
IC50 [2]: 0.2 nM
inhibition at 0.01 µM [2]: 98.2%
t1/2, relative to VX-548 [1]: 2 times
AUC(0-inf) [1, 7]: 9310 ng·h/mL
Cmax [1, 7]: 724 ng/mL
Tmax [1, 7]: 4 h
bioavailability [1, 7]: 48.5%
half-life [1, 7]: 6.29 h
AUC(0-inf) [1, 8]: 3840 ng·h/mL
half-life [1, 8]: 4.86 h
exposure level after oral administration, relative to VX-548 ([1]; oral administration): 2 times

COc1c([C@@H]2C[C@](C)(C(F)(F)F)S[C@H]2C(=O)Nc2ccc3nnnn3c2)ccc(F)c1F [Compound 202-A, (2R,3S,5R)-3-(3,4-difluoro-2-methoxyphenyl)-5-methyl-N-(tetrazolo[1,5-a]pyridin-6-yl)-5-(trifluoromethyl)tetrahydrothiophene-2-carboxamide]
inhibition at 0.001 µM [2]: 86.9%
AUC(0-inf) ([3]; Oral administration, 10 mg/kg): 12500 ng·h/mL
AUC(0-inf) ([3]; iv, Injection (i.v.), 2 mg/kg): 2050 ng·h/mL
concentration at 0.25 h [4]: 710 ng/g
concentration at 2 h [4]: 7200 ng/g
concentration at 12 h [4]: 2720 ng/g

COc1c([C@@H]2C[C@](C)(C(F)(F)F)S[C@H]2C(=O)Nc2cccc(S(N)(=O)=O)c2)ccc(F)c1F [Compound 223-A, (2R,3S,5R)-3-(3,4-difluoro-2-methoxyphenyl)-5-methyl-N-(3-sulfamoylphenyl)-5-(trifluoromethyl)tetrahydrothiophene-2-carboxamide]
IC50 [2]: 0.02 nM
AUC(0-inf) ([3]; Oral administration (p.o.), 20 mg/kg): 50600 ng·h/mL
AUC(0-inf) ([3]; iv, Injection (i.v.), 2 mg/kg): 7200 ng·h/mL
concentration at 0.25 h [4]: 511 ng/g
concentration at 2 h [4]: 2360 ng/g
concentration at 12 h [4]: 635 ng/g

COc1c([C@@H]2C[C@](C)(C(F)(F)F)S[C@H]2C(=O)Nc2ccnc(C#N)c2)ccc(F)c1F [Compound 242-A, (2R,3S,5R)-N-(2-cyanopyridin-4-yl)-3-(3,4-difluoro-2-methoxyphenyl)-5-methyl-5-(trifluoromethyl)tetrahydrothiophene-2-carboxamide]
inhibition at 0.01 µM [2]: 97.7%
AUC(0-inf) ([3]; Oral administration, 10 mg/kg): 18600 ng·h/mL
AUC(0-inf) ([3]; iv, Injection (i.v.), 2 mg/kg): 3480 ng·h/mL
concentration at 0.25 h [4]: 597 ng/g
concentration at 2 h [4]: 6070 ng/g
concentration at 12 h [4]: 2220 ng/g

COc1cccc(C2(O)CCCCC2CN(C)C)c1 (centres unmarked) [Tramadol]
Number of pain responses 0 min ([5]; SD rats, 10 mg/kg i.v. immediately before 5% formalin, 0 min, Mean + SD, n = 10): 31.9±15.0
Number of pain responses 10 min ([5]; SD rats, 10 mg/kg i.v. immediately before 5% formalin, 10 min, Mean + SD, n = 10): 1.9±3.0
Number of pain responses 15 min ([5]; SD rats, 10 mg/kg i.v. immediately before 5% formalin, 15 min, Mean + SD, n = 10): 4.1±4.4
Number of pain responses 30 min ([5]; SD rats, 10 mg/kg i.v. immediately before 5% formalin, 30 min, Mean + SD, n = 10): 12.8±6.7
Number of pain responses 40 min ([5]; SD rats, 10 mg/kg i.v. immediately before 5% formalin, 40 min, Mean + SD, n = 10): 13.2±8.1
Number of pain responses 50 min ([5]; SD rats, 10 mg/kg i.v. immediately before 5% formalin, 50 min, Mean + SD, n = 10): 8.6±3.6
Number of pain responses 60 min ([5]; SD rats, 10 mg/kg i.v. immediately before 5% formalin, 60 min, Mean + SD, n = 10): 9.3±5.1
analgesic activity in the first and second phases ([5]; rat formalin pain model, first phase immediately after injection, second phase about 15-20 min after): superior analgesic effects in the first and second phases, respectively

COc1c([C@@H]2C[C@](C)(C(F)(F)F)S[C@H]2C(=O)Nc2ccc(F)c(OS(N)(=O)=O)c2)ccc(F)c1F [a-32-A]
IC50 [2]: 0.1 nM
AUC(0-inf) ([3]; Oral administration, 10 mg/kg): 22900 ng·h/mL
AUC(0-inf) ([3]; iv, Injection (i.v.), 2 mg/kg): 7390 ng·h/mL

COc1c([C@@H]2C[C@](C)(C(F)(F)F)S[C@H]2C(=O)Nc2ccnc(C3(C#N)CC3)c2)ccc(F)c1F [a-73-A, (2R,3S,5R)-N-(2-(1-cyanocyclopropyl)pyridin-4-yl)-3-(3,4-difluoro-2-methoxyphenyl)-5-methyl-5-(trifluoromethyl)tetrahydrothiophene-2-carboxamide]
inhibition at 0.001 µM [2]: 58.8%

COc1c(C2CC(C)(C(F)(F)F)SC2C(=O)Nc2ccc(NC(=O)CN=[N+]=[N-])cc2)ccc(F)c1F (centres unmarked) [a-75-A, N-(4-(2-azidoacetamido)phenyl)-3-(3,4-difluoro-2-methoxyphenyl)-5-methyl-5-(trifluoromethyl)tetrahydrothiophene-2-carboxamide]
inhibition at 0.001 µM [2]: 55.2%

COc1c([C@@H]2C[C@](C)(C(F)(F)F)S[C@H]2C(=O)Nc2ccnc(SC#N)c2)ccc(F)c1F [a-80-A, (2R,3S,5R)-3-(3,4-difluoro-2-methoxyphenyl)-5-methyl-N-(2-thiocyanatopyridin-4-yl)-5-(trifluoromethyl)tetrahydrothiophene-2-carboxamide]
IC50 [2]: 0.19 nM

COc1c([C@@H]2C[C@](C)(C(F)(F)F)S[C@H]2C(=O)Nc2ccc(F)c(C=O)c2)ccc(F)c1F [a-84-A, (2R,3S,5R)-3-(3,4-difluoro-2-methoxyphenyl)-N-(4-fluoro-3-formylphenyl)-5-methyl-5-(trifluoromethyl)tetrahydrothiophene-2-carboxamide]
inhibition at 0.001 µM [2]: 69.3%

COc1c([C@@H]2C[C@](C)(C(F)(F)F)S[C@H]2C(=O)Nc2ccnc(C(=O)NO)c2)ccc(F)c1F [a-87-A, 4-((2R,3S,5R)-3-(3,4-difluoro-2-methoxyphenyl)-5-methyl-5-(trifluoromethyl)tetrahydrothiophene-2-carboxamido)-N-hydroxypicolinamide]
inhibition at 0.001 µM [2]: 47.7%

COc1c([C@@H]2C[C@](C)(C(F)(F)F)S[C@H]2C(=O)Nc2ccc(F)c(/C=C(\C#N)C(N)=O)c2)ccc(F)c1F [a-89-A, (2R,3S,5R)-N-(3-((E)-3-amino-2-cyano-3-oxopropen-1-yl)-4-fluorophenyl)-3-(3,4-difluoro-2-methoxyphenyl)-5-methyl-5-(trifluoromethyl)tetrahydrothiophene-2-carboxamide]
inhibition at 0.001 µM [2]: 51.5%
